Reference: patent publication US11891386B2, “Indole compounds and their use” (ARIAGEN, INC., priority 2017, dated 2024)

Columns and labels:
Assay type in all cases: in vitro ADME
mouse hepatocytes = assay: Hepatocyte intrinsic clearance assay, mouse hepatocytes; settings: for CLint (μL/min/10^6 ells) / EH (%) hepatic extraction ratio: Mouse Hepatocytes; for CLint (μL/min/10^6 ells): 1 μM test compound; for EH (%) hepatic extraction ratio: well stirred liver model, fu=1
Description: (§1) The liver is an important organ in the body for drug metabolism. This Example describes hepatocyte intrinsic clearance assays using both human and mouse hepatocytes to evaluate the metabolic stability of the indole compounds disclosed herein. The parameters measured include t1/2 (half-life), CLint (intrinsic clearance), and EH (hepatic extraction ratio).
(§2) Testosterone (Lot FE111011-01) was obtained from Cerilliant (Round Rock, TX). 7-hydroxycoumarin (Lot 11631ED) was obtained from Sigma Aldrich (St. Louis, MO). Cryopreserved human hepatocytes pooled from ten donor males (X008001), cryopreserved male IRC/CD-1 mouse hepatocytes (M005052), INVITROGRO HI Medium (incubation), and INVITROGRO HT Medium (thawing) were obtained from Bioreclamation IVT (Baltimore, MD). All solvents were obtained from commercial sources and used without further purification.
(§3) Each test compound was prepared as a 1 mM stock solution in DMSO. A 2 μM solution of test compound and positive controls were prepared in INVITROGRO HI Medium (incubation). These solutions were pre-warmed in a sterile incubator set to maintain 37° C., 5% CO2, and 98% humidity. Cryopreserved hepatocytes were prepared at a concentration of 2×10^6 living cells/mL in incubation media and pre-warmed in the incubator. The compound solutions and hepatocyte mixtures were then combined at a ratio of 1:1 (v:v). The final volume of the reaction mixture was 750 μL, containing 1 μM test compound (10 μM for 7-hydroxycoumarin) and […]. The reaction mixture was placed in the incubator on a plate shaker. After 0, 15, 30, 60, 90, and 120 minutes of incubation, 100 μL of reaction mixtures were removed from the incubation plate and mixed with 150 μL of ice-cold acetonitrile in a designated well of a 96-well crash plate. The 96-well crash plate was placed on ice for 15 min, and samples were centrifuged (3,600 RPM, 10 min, 4° C.) to precipitate protein. The supernatants were diluted 1:1 (v:v) with water containing 0.15 μM verapamil and/or 1 μM tolbutamide (internal standards for positive and negative modes, respectively) in a 96-well shallow injection plate. This plate was sealed for LC-MS analysis. All measurements were done in duplicate.
(§4) The residual compound remaining (% R) was determined from LC-MS peak areas by comparison to the zero time point. Metabolic half-life (t1/2) and intrinsic clearance (CLint) values were calculated from the slope of the plot of ln (% R) vs. time and the concentration of hepatocytes present in the incubation. Percent remaining at 60 minutes was calculated by plugging in the 60 minute value into the slope equation generated by the percent remaining time points.
(§5) In vivo hepatic clearance CLH was calculated using the well stirred liver model according to the following equation:
(§6) [formula] where QH is the total liver blood flow, fu is unbound fraction of the drug, and CL′int is defined as follows: CL′int=CLint×(10^6 cells/g of liver weight)×(g liver weight/kg of body weight). In the first approximation, used in this study, fu=1.
(§7) Hepatic extraction ratio EH was calculated using the following equation:
(§8) [formula] Corresponding physiological parameters used in calculations for all species are shown below in Table 5.

[1] = as above; settings: male, IRC/CD-1, cryopreserved mouse hepatocytes; Mouse Hepatocytes, 1 μM test compound
Description: as §1, §2, §3, §4, §5, §6, §7, §8

human hepatocytes = assay: Hepatocyte intrinsic clearance assay, human hepatocytes; settings: for CLint (μL/min/10^6 ells) / EH (%) hepatic extraction ratio: Human Hepatocytes; for CLint (μL/min/10^6 ells): 1 μM test compound; for EH (%) hepatic extraction ratio: well stirred liver model, fu=1
Description: as §1, §2, §3, §4, §5, §6, §7, §8

[2] = as above; settings: male, cryopreserved pooled human hepatocytes; Human Hepatocytes, 1 μM test compound
Description: as §1, §2, §3, §4, §5, §6, §7, §8

Row | SMILES | CLint (μL/min/10^6 ells) (mouse hepatocytes) | EH (%) hepatic extraction ratio (mouse hepatocytes) [%] | half-life at 1 μM [1] [h] | CLint (μL/min/10^6 ells) (human hepatocytes) | EH (%) hepatic extraction ratio (human hepatocytes) [%] | half-life at 1 μM [2] [h] | clearance / metabolic profile, in words (mouse hepatocytes; mouse hepatocytes) | clearance / metabolic profile, in words (human hepatocytes; human hepatocytes) | EH lower as compared to ARI-002, in words (mouse hepatocytes; mouse hepatocytes) | times lower clearance as compared to ARI-002 (mouse hepatocytes; mouse hepatocytes) [times] | EH lower as compared to ARI-002, in words (human hepatocytes; human hepatocytes) | times lower clearance as compared to ARI-002 (human hepatocytes; human hepatocytes) [times]
1 | CCC(=O)c1csc(C(=O)c2c[nH]c3ccc(Cl)cc23)n1 [ARI-067, 1-(2-(5-chloro-1H-indole-3-carbonyl)thiazol-4-yl)propan-1-one] | 3.3 | 16 | 3.54 | 2.3 | 22 | 5 | – | – | – | – | – | –
2 | COC(=O)c1csc(C(=O)c2c[nH]c3ccc(Cl)cc23)n1 [ARI-055, methyl 2-(5-chloro-1H-indole-3-carbonyl)thiazole-4-carboxylate] | 5.1 | 23 | 2.25 | 10.3 | 56 | 1.12 | – | – | – | – | – | –
3 | CNC(=O)c1csc(C(=O)c2c[nH]c3ccc(F)cc23)n1 [ARI-065, 2-(5-fluoro-1H-indole-3-carbonyl)-N-methylthiazole-4-carboxamide] | 7.1 | 29 | 1.62 | 7.6 | 48 | 1.52 | lower clearance and EH value | lower clearance and EH value | – | – | – | –
4 | COC(=O)c1csc(C(=O)c2c[nH]c3ccccc23)n1 [ARI-001, ITE] | 585.7 | 87 | 0.0917 | 220.4 | 91 | 0.13 | – | – | – | – | – | –
5 | CCC(=O)c1csc(C(=O)c2c[nH]c3cc(F)ccc23)n1 [ARI-143, 1-(2-(6-fluoro-1H-indole-3-carbonyl)thiazol-4-yl)propan-1-one] | 2.3 | 12 | 5.1 | 4.5 | 36 | 2.57 | – | – | eight times lower | 418 | two times | 30
6 | Nc1nnc(-c2csc(C(=O)c3c[nH]c4ccccc34)n2)o1 [ARI-083, (4-(5-amino-1,3,4-oxadiazol-2-yl)thiazol-2-yl)(1H-indol-3-yl)methanone] | 0.7 | 4 | 16.1 | 1.1 | 12 | 10.8 | lower clearance and hepatic extraction parameters than ARI-060 | lower clearance and hepatic extraction parameters than ARI-060 | – | – | – | –
